We go through 23 compounds from patent US6544985B2, “Dihydro-benzo [b][1,4]diazepin-2-one derivatives” (Hoffman-La Roche Inc., priority 2001, dated 2003).

What is called melting point is the temperature, or range, at which the solid turns liquid. As to `CN(C)c1cc2c(cc1Cl)NC(=O)CC(c1cccc(C#N)c1)=N2` [Example 1, 3-(7-Chloro-8-dimethylamino-4-oxo-4,5-dihydro-3H-benzo[b][1,4]diazepin-2-yl)-benzonitrile], the melting point was over 250 °C. The result for `CN(C)c1cc2c(cc1Cl)NC(=O)CC(c1cccc(-n3ccnn3)c1)=N2` [Example 2, 8-Chloro-7-dimethylamino-4-(3-[1,2,3]triazol-1-yl-phenyl)-1,3-dihydro-benzo[b][1,4]diazepin-2-one] reads 222 to 225 °C; that for `CN(C)c1cc2c(cc1C#Cc1ccccc1)NC(=O)CC(c1cccc(C#N)c1)=N2` [Example 4, 3-(8-Dimethylamino-4-oxo-7-phenylethynyl-4,5-dihydro-3H-benzo[b][1,4]diazepin-2-yl)-benzonitrile], 215 to 216 °C. The result for `CN(C)c1cc2c(cc1C#Cc1ccccc1)NC(=O)CC(c1cccc(-n3ccnn3)c1)=N2` [Example 5, 7-Dimethylamino-8-phenylethynyl-4-(3-[1,2,3]triazol-1-yl-phenyl)-1,3-dihydro-benzo[b][1,4]diazepin-2-one] reads 185 to 186 °C. The result for `Cc1cc(-c2cccc(C3=Nc4cc(N(C)C)c(Cl)cc4NC(=O)C3)c2)on1` [Example 6, 8-Chloro-7-dimethylamino-4-[3-(3-methyl-isoxazol-5-yl)-phenyl]-1,3-dihydro-benzo[b][1,4]diazepin-2-one] reads 212 to 215 °C.

Turning to `Cc1cc(-c2cc(C3=Nc4cc(N(C)C)c(Cl)cc4NC(=O)C3)ccn2)on1` [Example 10, 8-Chloro-7-dimethylamino-4-[2-(3-methyl-isoxazol-5-yl)-pyridin-4-yl]-1,3-dihydro-benzo[b][1,4]diazepin-2-one], the melting point was over 250 °C. `COCCN(C)c1cc2c(cc1Cl)NC(=O)CC(c1ccnc(-c3cc(C)no3)c1)=N2` [Example 12, 8-Chloro-7-[(2-methoxy-ethyl)-methyl-amino]-4-[2-(3-methyl-isoxazol-5-yl)-pyridin-4-yl]-1,3-dihydro-benzo[b][1,4]diazepin-2-one] returned a melting point of 213 °C.

For `COCCN(C)c1cc2c(cc1Cl)NC(=O)CC(c1cccc(-n3nncc3CO)c1)=N2` [Example 13, 8-Chloro-4-[3-(5-hydroxymethyl-[1,2,3]triazol-1-yl)-phenyl]-7-[(2-methoxy-ethyl)-methyl-amino]-1,3-dihydro-benzo[b][1,4]diazepin-2-one], the melting point was determined as 185 °C. The result for `COCCN(C)c1cc2c(cc1Cl)NC(=O)CC(c1cccc(-n3ccnn3)c1)=N2` [Example 14, 8-Chloro-7-[(2-methoxy-ethyl)-methyl-amino]-4-(3-[1,2,3]triazol-1-yl-phenyl)-1,3-dihydro-benzo[b][1,4]diazepin-2-one] reads 156 °C.

On to `CN(C)c1cc2c(cc1Cl)NC(=O)CC(c1ccnc(C#N)c1)=N2` [Example 15, 4-(7-Chloro-8-dimethylamino-4-oxo-4,5-dihydro-3H-benzo[b][1,4]diazepin-2-yl)-pyridine-2-carbonitrile], for which the melting point was found to be 216 °C.

As for `CN(C)c1cc2c(cc1C(F)(F)F)NC(=O)CC(c1cccc(-n3nncc3CO)c1)=N2` [Example 17, 7-Dimethylamino-4-[3-(5-hydroxymethyl-[1,2,3]triazol-1-yl)-phenyl]-8-trifluoromethyl-1,3-dihydro-benzo[b][1,4]diazepin-2-one], the melting point is 210 °C. The result for `Cc1cc(-c2cccc(C3=Nc4cc(N(C)C)c(C(F)(F)F)cc4NC(=O)C3)c2)on1` [Example 18, 7-Dimethylamino-4-[3-(3-methyl-isoxazol-5-yl)-phenyl]-8-trifluoromethyl-1,3-dihydro-benzo[b][1,4]diazepin-2-one] reads 223 °C; that for `CN(C)Cc1cnnn1-c1cccc(C2=Nc3cc(N(C)C)c(Cl)cc3NC(=O)C2)c1` [Example 20, 8-Chloro-7-dimethylamino-4-[3-(5-dimethylaminomethyl-[1,2,3]triazol-1-yl)-phenyl]-1,3-dihydro-benzo[b][1,4]diazepin-2-one], 145 to 160 °C; that for `COCc1cc(-c2cccc(C3=Nc4cc(N(C)C)c(Cl)cc4NC(=O)C3)c2)on1` [Example 21, 8-Chloro-7-dimethylamino-4-[3-(3-methoxymethyl-isoxazol-5-yl)-phenyl]-1,3-dihydro-benzo[b][1,4]diazepin-2-one], 191 °C. The compound `CN(C)c1cc2c(cc1C(F)(F)F)NC(=O)CC(c1ccnc(C#N)c1)=N2` [Example 22, 4-(8-Dimethylamino-4-oxo-7-trifluoromethyl-4,5-dihydro-3H-benzo[b][1,4]diazepin-2-yl)-pyridine-2-carbonitrile] gave a melting point of 248 °C. For `O=C1CC(c2cccc(-n3ccnc3)c2)=Nc2cc(OCC(F)(F)F)c(-c3ccccc3F)cc2N1` [Example 23, 8-(2-Fluoro-phenyl)-4-(3-imidazol-1-yl-phenyl)-7-(2,2,2-trifluoro-ethoxy)-1,3-dihydro-benzo[b][1,4]diazepin-2-one], the melting point lay in the range of 208 to 210 °C.

Compound `O=C1CC(c2cccc(-n3nncc3CO)c2)=Nc2cc(OCC(F)(F)F)c(-c3ccccc3F)cc2N1` [Example 26, 8-(2-Fluoro-phenyl)-4-[3-(5-hydroxymethyl-[1,2,3]triazol-1-yl)-phenyl]-7-(2,2,2-trifluoro-ethoxy)-1,3-dihydro-benzo[b][1,4]diazepin-2-one] gave a melting point of 232 to 234 °C.

In the case of `CCN(C)c1cc2c(cc1Cl)NC(=O)CC(c1cccc(-n3nncc3CO)c1)=N2` [Example 28, 8-Chloro-7-(ethyl-methyl-amino)-4-[3-(5-hydroxymethyl-[1,2,3]triazol-1-yl)-phenyl]-1,3-dihydro-benzo[b][1,4]diazepin-2-one], the melting point is 206 °C (dec.). Then `CN(C)c1cc2c(cc1Cl)NC(=O)CC(c1cccc(-c3cc(CO)no3)c1)=N2` [Example 31, 8-Chloro-7-dimethylamino-4-[3-(3-hydroxymethyl-isoxazol-5-yl)-phenyl]-1,3-dihydro-benzo[b][1,4]diazepin-2-one], with 132 °C; and `CN(C)c1cc2c(cc1C(F)(F)F)NC(=O)CC(c1cccc(-c3ccnn3C)c1)=N2` [Example 33, 7-Dimethylamino-4-[3-(2-methyl-2H-pyrazol-3-yl)-phenyl]-8-trifluoromethyl-1,3-dihydro-benzo[b][1,4]diazepin-2-one], with 225 °C. Then `CN(c1cc2c(cc1Cl)NC(=O)CC(c1ccnc(C#N)c1)=N2)C1CC1` [Example 34, 4-[7-Chloro-8-(cyclopropyl-methyl-amino)-4-oxo-4,5-dihydro-3H-benzo[b][1,4]diazepin-2-yl]-pyridine-2-carbonitrile], with 199 to 201 °C; and `Cc1noc(-c2cccc(C3=Nc4cc(N(C)C)c(Cl)cc4NC(=O)C3)c2)c1CO` [Example 35, 8-Chloro-7-dimethylamino-4-[3-(4-hydroxymethyl-3-methyl-isoxazol-5-yl)-phenyl]-1,3-dihydro-benzo[b][1,4]diazepin-2-one], with 232 to 233 °C; and `Cc1cc(-c2cccc(C3=Nc4cc(N(C)C5CC5)c(Cl)cc4NC(=O)C3)c2)on1` [Example 36, 8-Chloro-7-(cyclopropyl-methyl-amino)-4-[3-(3-methyl-isoxazol-5-yl)-phenyl]-1,3-dihydro-benzo[b][1,4]diazepin-2-one], with 195 to 197 °C.
